Experimental data from patent publication US20140142170A1, “COMPOSITION AND METHOD FOR INFLUENCING ENERGY METABOLISM AND TREATING METABOLIC AND OTHER DISORDERS” (SIRTUIN VALLEY OY, priority 2010, published 2014).
Entries after “also recorded” stand apart in the source; their conditions may differ.

How the values were obtained:
Format in all cases: cell-based
[1] = tested on: acetyl-CoA carboxylase (ACC); assay: ACC expression, immunoblot in 3T3L1 preadipocytes; settings: 100 μM, 24 hours
[2] = tested on: mitochondria of 3T3L1 preadipocytes; assay: Mitochondrial staining with MitoTracker green, confocal microscopy; settings: 60 μM, 24 hours
Protocol: The 3T3L1 preadipocytes were plated onto Ibidi u-slide 8 well plates at 1.6×10^4 cells/well and incubated at 37° C. in a humidified atmosphere with 10% CO2. The media was removed after 24 hours, the cells were treated with 60 μM GR24 and incubated for 24 hours at 37° C. in a humidified atmosphere with 10% CO2. After 24 hours of treatment, staining of mitochondria was done using 200 nM MitoTracker Mitochondrion-Selective Probes (Green FM probes Cat.#M7514, Invitrogen) according to the manufacturer's instructions. The cells were observed using a confocal microscope and images were taken at 40× oil immersion.
Preadipocytes were treated with DMSO (Vehicle control) (FIG. 5A), 60 μM resveratrol (FIG. 5B) or 60 μM strigolactone analog GR24 (FIG. 5C) for 24 hours. Next, preadipocytes were stained with MitoTracker green and observed under a confocal microscope at 40× oil immersion. […] The white oval shaped structures are nucleus and the white thread-like structures around the nucleus in the cytoplasm are mitochondria. When compared to the control, there was an increase in mitochondrial biogenesis represented by elongated mitochondria, and an increase in mitochondrial activation represented by the intensity of fluorescence, in cells treated with resveratrol and GR24. […] Thus, GR24 enhances both biogenesis and activity of mitochondria, which is necessary to generate ATP.

[3] = tested on: phospho-AMPK; assay: phospho-AMPK expression / AMPK activation, immunoblot in 3T3 L1 preadipocytes; settings: 24 hours; for phospho-AMPK expression compared to control: 60 μM; for phosphorylated AMPK expression vs control: 3T3L1 preadipocytes, 100 μM
Protocol: (§1) 3T3L1 cells were purchased from American Type Culture Collection (Manassas, Va., USA) and cultured in DMEM media containing 4.5 g/l glucose supplemented with 10% fetal bovine serum (Hyclone), 2 mM L-glutamine (Gibco), 100 U/ml penicillin, and 100 μg/ml streptomycin (Gibco). The cells were cultured at 37° C. in a humidified atmosphere with 10% CO2.
(§2) The 3T3L1 cells were plated at 6×10^4 cells/well in 12 well plates and incubated at 37° C. in a humidified atmosphere with 10% CO2. […] The media was removed, cells were washed with PBS, and cell lysates were collected on ice. Proteins were extracted using RIPA buffer along with protease and phosphatase inhibitors. Lysates were centrifuged for 30 min at high speed; supernatant was collected and stored at […] until further analysis. The vehicle controls were 3T3 L1 cells without any treatment with drugs or other compounds. The drugs or compounds that were used in all the experiments were dissolved or diluted in dimethylsulfoxide (DMSO) as diluent. In all experiments, the controls were treated with the same volume of DMSO as was used to dissolve drugs or compounds in compound-treated cells to show and ensure that the actual change in protein expression in different treatments was due solely to the compounds or combination of compounds and not to the DMSO.
Protein concentrations were measured using a BCA (bicinchoninic acid) protein assay kit (Cat.#23225; Pierce, Rockford, Ill.). Twenty (20) μg/lane of total cellular protein samples containing NuPAGE LDS sample buffer (Invitrogen) and reducing agent were loaded into 4-12% NuPAGE Bis-Tris gels (Invitrogen), subjected to gel electrophoresis, and transferred to polyvinylidene fluoride membranes (Amersham). For SIRT1 proteins, membranes were blocked in 0.05% TBS-Tween with 3% milk for 1 hour, incubated overnight at +4° C. with SIRT1 primary antibodies (Cat.#07-131, Millipore). For phospho-AMPKα and AMPKα proteins, blocking was done for 1 hour in 0.1% TBS-Tween with 5% milk. The membranes were incubated overnight at +4° C. with phospho-AMPKα (Cat. #2535, Cell Signaling) and AMPKα (Cat.#2532, Cell Signaling) primary antibodies. Horseradish peroxidase-conjugated anti-rabbit antibodies (Cat. #NA934V GE Health Care, Amersham, U.K) were used as secondary antibodies. For α-tubulin (loading control), membranes were blocked in 0.05% PBS-Tween with 3% milk for 1 hour, incubated with α-tubulin (Cat.# B-5-1-2, Sigma) primary antibodies for 1 hour at room temperature and horseradish peroxidase-conjugated anti-mouse (Cat. # NA 931V GE Health Care, Amersham, U.K.) IgG antibodies were used as secondary antibodies.
The membranes were developed using chemiluminescence (ECL plus, GE Health Care), and images were captured in an Image Quant RT-ECL machine (version 1.0.1; GE Health Care). Densitometry and quantification of the bands were done by applying Quantity One software (Bio-Rad). The expression levels of the proteins were normalized to α-tubulin protein levels.

[4] = tested on: phospho-ACC; assay: phospho-ACC expression, immunoblot in 3T3 L1 preadipocytes; settings: 24 hours; for phosphorylated ACC expression vs control: 3T3L1 preadipocytes, 100 μM
[5] = tested on: PGC-1α; assay: PGC-1α protein expression, immunoblot and densitometry in 3T3 L1 preadipocytes; settings: 3T3L1 preadipocytes, 100 μM, 24 hours
[6] = tested on: AMPK; assay: total AMPK expression, immunoblot in 3T3L1 preadipocytes; settings: 100 μM, 24 hours
Protocol: as §1
as §2, with “In all experiments, the controls were treated with the same volume of DMSO as was used to dissolve drugs or compounds in compound-treated cells to show and ensure that the actual change in protein expression in different treatments was due solely to the compounds or combination of compounds and not to the DMSO.” left out
Protein concentrations were measured using a BCA (bicinchoninic acid) protein assay kit (Cat.#23225; Pierce, Rockford, Ill.). […]
The membranes were developed using chemiluminescence (ECL plus, GE Health Care), and images were captured in an Image Quant RT-ECL machine (version 1.0.1; GE Health Care). Densitometry and quantification of the bands were done by applying Quantity One software (Bio-Rad). […]

CC1=CC(O/C=C2/C(=O)O[C@@H]3c4ccccc4C[C@H]23)OC1=O (stereo partly drawn) [GR24]
ACC protein expression vs control [1]: down-regulated
increase in intensity of staining, visibility [2]: clearly visible only in the GR24 treated cells
mitochondrial activation (intensity of fluorescence) compared to control [2]: increase
mitochondrial biogenesis (elongated mitochondria) compared to control [2]: increase
AMPK activation (pAMPK/AMPK/α-tubulin ratio) compared to control ([3]; 3T3 L1 preadipocytes, 60 μM each compound): no activation
phospho-AMPK expression compared to control ([3]; 3T3 L1 preadipocytes): significant increase in expression with resveratrol but not with GR24; also recorded: did not
phospho-AMPK expression compared to control ([3]; 3T3 L1 preadipocytes, listed as GR 24): significant increase in expression with resveratrol but not with GR 24
phosphorylated AMPK expression vs control [3]: down-regulated
phosphorylated AMPK expression vs control ([3]; listed as GR 24): down-regulation
phospho-ACC expression (phosphorylation of ACC) compared to control ([4]; 3T3 L1 preadipocytes, 60 μM): no change
phosphorylated ACC expression vs control [4]: down-regulated
phosphorylated ACC expression vs control ([4]; listed as GR 24): decrease
PGC-1α expression vs control [5]: significantly increased
PGC-1α expression vs control ([5]; listed as GR 24): activation
total AMPK expression vs control [6]: down-regulated
